Data set [1] can be described thus: POV reduction in model citrus perfume (mixed citrus oil in 90/10 v/v ethanol/water).
The conditions of data set [2]: leading to evolution of carbon dioxide and pyruvic acid; Krebs 1942; cited from earlier work.
Data set [3] in a line: POV reduction in sunflower oil. To be noted: 0.5081 g in 15 mL sunflower oil.
A short description of data set [4]: POV reduction in consumer product spiked with oxidized limonene: antiperspirant stick. To be noted: 1% (w/w).
Data set [5] is described as follows: POV reduction in non-citrus essential oil: basil oil. To be noted: 4 days treatment, 0.2 mL in 10 mL. As for the experimental part:
(§1) For each oil, 20 mL was placed in separate 30 mL glass vials, and subjected to the following procedure for 8 days on a daily basis; the vial was opened to refresh the atmospheric headspace, then reclosed and shaken to maximize the gas/liquid contact, then stored on the benchtop under ambient laboratory temperature and lighting conditions. This procedure was designed to mimic the typical handling of a container in a production setting, in which the oil gets consumed in many small aliquots, rather than an entire container at a time.
(§2) On Day 4, each oil sample was split in half, so two 10 mL aliquots were placed in separate vials to create a “Treated” and an “Untreated” sample. To the Treated sample of each oil type, AKG-DiTMEEA was added as per the Dosing chart below. […] The daily opening, shaking, and standing procedure continued for another four days until the POV measurements were taken. It can be seen that 8 days of such handling of the untreated oils caused significant increases in POV measurement.

A short description of data set [6]: POV reduction in non-citrus essential oil: coriander oil. To be noted: 4 days treatment, 0.2 mL in 10 mL. As for the experimental part:
as §1, §2

Data set [7] in a line: POV reduction in non-citrus essential oil: patchouli oil. To be noted: 4 days treatment, 0.2 mL in 10 mL. As for the experimental part: as §1, §2
A short description of data set [8]: POV reduction in non-citrus essential oil: star anise oil. To be noted: 4 days treatment, 0.2 mL in 10 mL. Here is the method:
as §1, §2

The nature of data set [9]: POV reduction in non-citrus essential oil: cinnamon leaf oil. To be noted: 4 days treatment, 0.2 mL in 10 mL. Here is the method:
as §1, §2

A short description of data set [10]: POV reduction in non-citrus essential oil: cedarwood oil Virginian. To be noted: 4 days treatment, 0.2 mL in 10 mL. Here is the method: as §1, §2
Data set [11] in a line: POV reduction in non-citrus essential oil: pine oil Siberian. To be noted: 4 days. As for the experimental part:
as §1, §2
For this reason, two levels of AKG-DiTMEEA treatment were tried, ×2 and ×4 the treatment used on the other oils. […] A different, lower molecular weight 2-oxoacid salt may be a better choice.

Data set [12] is described as follows: POV reduction in non-citrus essential oil: lavender oil. To be noted: 4 days treatment, 0.2 mL in 10 mL. As for the experimental part:
as §1, §2

A short description of data set [13]: POV reduction in non-citrus essential oil: petitgrain oil. To be noted: 4 days treatment, 0.2 mL in 10 mL. Here is the method: as §1, §2
A short description of the next data set: pH of aqueous solution. To be noted: solution of 0.114 g in 10 mL of water. In kind it is physicochemical.
Data set [14] can be described thus: POV reduction in autoxidized limonene. To be noted: 200 mg in 20 mL autoxidized limonene. As for the experimental part:
The vial was shaken once and allowed to stand for 50 minutes. No further treatment was done prior to the POV testing. […] POV before treatment was 65.97 mEq./L, and POV after treatment was 17.21 mEq./L. […] The vial was shaken once and allowed to stand, while being monitored for POV value as a function of time. […] The vial was shaken once and allowed to stand, while being monitored for POV value as a function of time.

The nature of data set [15]: Solubility / miscibility observed on addition to the treated material. To be noted: 200 mg in 20 mL.
Setting [16] is: 8 days* (second line, asterisk not explained).
[17] abbreviates: Siberian (x2 Treatment Level), 0.2 mL in 5 mL.
The mark [18] stands for this setting: Siberian (x4 Treatment Level), 0.4 mL in 5 mL.
The mark [19] stands for this setting: 2880 min (48 hrs) since addition.

Read-outs that look alike come from different tables or passages of the source.

As for `O=C(O)CC(=O)C(=O)O` [oxaloacetic acid], the “POV of Treated Perfume” value in data set [1] (0.0 min, approximately 166 mg (0.83% w/v) in 20 mL model perfume (Example 19)) is given as 9.44 mmol/L; in [1] (27 min, 0.83% w/v in 20 mL model perfume (Example 19)), 5.90 mmol/L; in data set [1] (245 min, 0.83% w/v in 20 mL model perfume (Example 19)), 1.91 mmol/L; in data set [1] ([…] (24 hours), 0.83% w/v in 20 mL model perfume (Example 19), indistinguishable from blank) it was 0.0 indistinguishable from mmol/L. The “reduction in the POV of the formulated perfume (in words)” value in data set [1] (24 hours after treatment) was “complete reduction”. In addition, in data set [2], the “stability in aqueous solutions” value was “unstable in aqueous solutions”.
For `COCCOCCN(CCOCCOC)CCOCCOC.COCCOCCN(CCOCCOC)CCOCCOC.O=C(O)CCC(=O)C(=O)O` [AKG-diTMEEA], the “POV of treated oil” value is 11.72 mmol/L in data set [3] (65 minutes since addition), 9.19 mmol/L in data set [3] (180 mins (3 hrs)), 5.80 mmol/L in [3] (1320 mins (22 hrs)) and 2.10 mmol/L in [3] (23 days). The “% Reduction in POV” value in data set [3] (65 minutes) is on record as 29.2%; in [3] (180 mins (3 hrs)), 44.5%; in data set [3] (1320 mins (22 hrs)), 65.0%; in data set [3] (23 days), 88.7%; in [4] (150 minutes), 71.3%; in data set [4] (310 minutes (5.17 h)), 78.3%. The “% Reduction in POV” value in data set [4] (26 hrs) was determined as 83.2%; in [4] (4 days) it was 83.8%; in [4] (setting [16]), 86.6%; in data set [4] (8 days) it was 87.0%; in data set [4] (15 days), 88.4%; in data set [4] (26 days) it was 88.7%. For the same compound, the “% Reduction in POV” value in data set [5] stood at 89.6%; in [6] it was 89.7%; in data set [7] it was 100.0%; in [8], 89.2%; in data set [9], 87.5%; in data set [10], 95.2%. For the same compound, the “% Reduction in POV” value in data set [11] (setting [17]) is 48.4%; in [11] (setting [18]), 68.4%; in data set [12], 76.3%; in data set [13] it was 79.9%. Also, the “POV of treated APS” value stood at 3.7 mmol/L in data set [4] (150 minutes since addition, spiked with oxidized limonene); 3.03 mmol/L in data set [4] (310 minutes (5.17 h)); 2.46 mmol/L in [4] (26 hrs); 2.04 mmol/L in data set [4] (4 days); 1.8 mmol/L in [4] (setting [16]); 1.77 mmol/L in [4] (8 days). Also, the “POV of treated APS” value was 1.50 mmol/L in [4] (15 days) and 1.42 mmol/L in data set [4] (26 days). Besides, the “POV of Treated Oil” value in [5] is 2.49 mmol/L; in data set [6] it was 2.44 mmol/L; in [7], 0.00 mmol/L; in [8], 0.38 mmol/L; in data set [9] it was 0.57 mmol/L; in [10] it was 0.72 mmol/L. In addition, the “POV of Treated Oil” value in data set [11] (setting [17]) worked out at 24.8 mmol/L; in data set [11] (setting [18]) it was 15.21 mmol/L; in [12], 5.83 mmol/L; in [13], 4.28 mmol/L.
Take `O=C(O)CCC(=O)C(=O)O` [α-ketoglutaric acid, alpha-ketoglutaric acid]: the “reduction in the POV of the formulated perfume (in words)” value in data set [1] is reported as “complete reduction”. For the same compound, in “pH of aqueous solution”, the “measured pH” value is recorded as 1.75.
As for `O=C(O)C(=O)c1ccccc1` [phenylglyoxylic acid], the POV was 37.035 mEq/L in [14] (40 min since addition), 34.086 mEq/L in data set [14] (150 min since addition), 29.963 mEq/L in data set [14] (190 min since addition) and 17.265 mEq/L in [14] (setting [19]). Moreover, the POV reduction in data set [14] (40 min since addition) stood at 17.3%; in data set [14] (150 min since addition), 23.9%; in [14] (190 min since addition), 33.1%; in [14] (setting [19]), 61.5%. Further, the “solubility in autoxidized limonene (in words)” value in data set [15] is “dissolved”.

(Values after patent US12435294B2, “Prevention of the oxidation of perfumery raw materials and food raw materials” (Firmenich SA, priority 2018, dated 2025).)
